Test results published in patent publication US9345734B2, “Achillea fragrantissima extract, method for preparing Achillea fragrantissima extract and method for treating chronic myeloid leukemia” (King Saud University, priority 2013, dated 2016).

System: K562 human leukemia cells
Experiment: Leukemia K562 cell model in rats, survival after onset of circulating blast cells
Assay type: in vivo
Conditions: oral 30 mg/kg, treated for 7 to 14 days
Method: Male Waster rats (220-230 g) were used. Rats were maintained in cages with raised floors of wide wire mesh to prevent coprophagy. All animals were kept under uniform and controlled conditions of temperature and light/dark (12/12 h) cycles. The animals were fed with standard pelleted diet and water ad libitum and were left one week for acclimatization to animal room condition.
A known weight of total methanol extract and each of the isolated compounds (P1-P5) and the reference drug (TKIs) was dissolved in 3% v/v Tween 80 to produce solutions of 10% concentration.
In absence of LD50 values for the total methanol extract and each of the isolated compounds, an experimental dose of 100/mg kg was selected in this investigation to be given orally to rats. The reference drug, TKIs, were given orally at a certain dose (30 mg/kg). This dose was calculated by converting the therapeutic dose that used in human to rat's dose according to the table of Paget & Barnes (1964). […]
Rats were divided into 8 equal groups. […] After transplantation of the K562 cells, animals were monitored for the presence of circulating blast cells by blood sampling from the retro-orbital plexus according to Ratajczak et al. (1992) method.
After 5 weeks, leukemic cell transplantation in animals was monitored for the development of overt leukemia by retro-orbital plexus bleeding thrice weekly. […]

Cc1ccc(NC(=O)c2ccc(CN3CCN(C)CC3)cc2)cc1Nc1nccc(-c2cccnc2)n1 [TKIs, 4-[(4-methyl-1-piperazinyl)methyl]-N-[4-methyl-3-[[4-(3-pyridinyl)-2-pyrimidinyl]aminophenyl]benzamide methanesulfonate]
survival compared with control animals: not statistically different from the control animals
